In patent publication US10807993B2, “Dihydrochromene derivatives” (Sumitomo Dainippon Pharma Co., Ltd., priority 2018, dated 2020):
Like-named read-outs stand apart in the source and are kept apart here.

Legend:
hERG [1] = target: T1, hERG (Homo sapiens (Human), UniProt Q12809)
Procedure: (§1) To a cultured CHO cell strain which stably expresses hERG was added each test compound to adjust the final concentration of DMSO to 0.0135 to 0.5%. The hERG current was measured with QPatch HT (Sophion Inc.), and the concentration at which 50% of the hERG current was inhibited by each test compound (IC50 value; μM) was calculated.
(§2) The compounds of Examples were tested according to Test 2. And, the hERG/HT-29 was calculated by dividing the compound concentration obtained in Test 2 (50% of the hERG current is inhibited) by the compound concentration obtained in Test 1 (50% of the proliferation of HT-29 cells is inhibited).

HT-29 cells = assay: Inhibition test for sphere formation assay of cancer cells; assay type: cell-based; settings: for IC50: sphere culture (ultra-low attachment, serum-free), 4 days, CellTiter-Glo, read-out: Sphere IC50 value (concentration for 50% inhibition of cell proliferation); for activity for inhibiting cell proliferation in the sphere culture condition: summary in words
Procedure: Reliable methods established for measuring the self-renewal ability of cells which is one of the CSC's properties include a method for measuring the sphere-forming ability of cancer cells in non-adherent condition in the absence of serum (Cancer Res 65, 5506-5511 (2005)). HT-29 cells were available from American Type Culture Collection (ATCC). HT-29 cells were cultured at 37° C. under 5% CO2 using the McCoy's 5a medium containing 10% fetal bovine serum (FBS) and 1% penicillin/streptomycin. HT-29 cells were seeded in a 384 Well Black Clear Bottom Ultra-Low Attachment Microplate (Corning Cat. No. 3827) in an amount of 350-800 cells/well using the DMEM/F12 medium containing 2% B27 supplement (GIBCO), 20 ng/mL epidermal growth factor (EGF) (peprotech), 10 ng/mL basic fibroblast growth factor (bFGF) (peprotech), 5 μg/mL insulin (Sigma), and 1% penicillin/streptomycin. Each test compound was added into each well to adjust the final concentration of DMSO to 0.1%, and the cells were cultured for 4 days. The number of viable cells in each well was then measured with CellTiter-Glo™ Luminescent Cell Viability Assay (Promega) to calculate the concentration of each test compound for 50% inhibition of cell proliferation (Sphere IC50 value; […])
The experiment of Test 1 was performed for each compound of each Example. The concentration of each test compound for 50% inhibition of cell proliferation (Sphere IC50 value; μmol/L) is shown in the following Table.

hERG [2] = target: T1, hERG; assay: Test for evaluating hERG inhibition (QPatch HT, CHO cell strain stably expressing hERG); settings: for hERG/HT-29: hERG IC50 (Test 2) divided by HT-29 sphere IC50 (Test 1); for deviation between the concentration of inhibiting 50% cell proliferation and the concentration of inhibiting 50% hERG current: summary in words of hERG/HT-29
Procedure: as §1, §2

[3] = read-out: Binding inhibition (IC50, μM), concentration at which 50% of the hERG current was inhibited, CHO cells stably expressing hERG, QPatch HT

T1 sequence (Q12809 whole entry): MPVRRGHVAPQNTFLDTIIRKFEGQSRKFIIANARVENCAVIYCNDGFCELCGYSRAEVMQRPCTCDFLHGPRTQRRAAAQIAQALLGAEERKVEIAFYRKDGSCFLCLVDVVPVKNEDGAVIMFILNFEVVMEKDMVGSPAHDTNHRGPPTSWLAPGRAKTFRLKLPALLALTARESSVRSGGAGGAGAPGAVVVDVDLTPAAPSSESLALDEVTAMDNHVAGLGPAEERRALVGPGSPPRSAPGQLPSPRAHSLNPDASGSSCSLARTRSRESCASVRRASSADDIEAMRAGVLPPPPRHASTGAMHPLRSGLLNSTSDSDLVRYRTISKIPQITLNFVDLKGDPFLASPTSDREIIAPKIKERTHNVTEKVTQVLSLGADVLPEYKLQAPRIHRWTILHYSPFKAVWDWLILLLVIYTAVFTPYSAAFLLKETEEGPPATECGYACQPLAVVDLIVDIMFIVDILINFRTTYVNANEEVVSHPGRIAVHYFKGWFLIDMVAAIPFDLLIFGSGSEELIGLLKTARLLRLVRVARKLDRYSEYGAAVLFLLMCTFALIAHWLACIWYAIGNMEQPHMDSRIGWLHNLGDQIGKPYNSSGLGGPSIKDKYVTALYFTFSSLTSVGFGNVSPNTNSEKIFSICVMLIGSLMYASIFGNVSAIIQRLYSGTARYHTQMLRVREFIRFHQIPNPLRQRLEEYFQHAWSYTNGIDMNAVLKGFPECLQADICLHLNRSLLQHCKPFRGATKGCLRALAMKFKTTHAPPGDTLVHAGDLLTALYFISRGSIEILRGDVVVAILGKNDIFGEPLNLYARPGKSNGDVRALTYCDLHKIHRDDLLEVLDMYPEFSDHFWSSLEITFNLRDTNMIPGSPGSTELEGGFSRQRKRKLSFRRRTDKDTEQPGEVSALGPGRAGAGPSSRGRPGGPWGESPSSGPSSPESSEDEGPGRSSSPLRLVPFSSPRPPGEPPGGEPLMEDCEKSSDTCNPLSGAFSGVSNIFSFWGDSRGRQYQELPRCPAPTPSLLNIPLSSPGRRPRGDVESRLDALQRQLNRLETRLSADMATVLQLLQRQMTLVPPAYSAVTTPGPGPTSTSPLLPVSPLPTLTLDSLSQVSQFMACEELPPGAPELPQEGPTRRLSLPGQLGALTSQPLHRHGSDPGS

## CC1(C)Oc2ccc(N=[N+]=[N-])cc2C2OCC3(CCN(C(=O)Cn4ccnc4C#N)CC3)CC21 (centres unmarked) [Example 11]
hERG [1]
  IC50: 4900 nM
  hERG/HT-29: 1.20
HT-29 cells
  IC50: 4090 nM

## CC1(C)Oc2ccc(Cl)cc2C2OCC3(CCN(CCn4cnc(CO)c4)CC3)CC21 (centres unmarked) [Example 55]
hERG [1]
  IC50: 1600 nM
  hERG/HT-29: 26.7
HT-29 cells
  IC50: 60 nM

## Cc1nccn1CC(=O)N1CCC2(CC1)COC1c3cc(Cl)ccc3OC(C)(C)C1C2 (racemic) [Example 1, Racemate of 1-[(4′aS,10′bS)-9′-chloro-5′,5′-dimethyl-4′a,10′b-dihydro-2′H,4′H,5′H-spiro[piperidine-4,3′-pyrano[3,2-c][1]benzopyran]-1-yl]-2-(2-methyl-1H-imidazol-1-yl)ethan-1-one and 1-[(4′aR,10′bR)-9′-chloro-5′,5′-dimethyl-4′a,10′b-dihydro-2′H, 4′H, 5′H-spiro[piperidine-4,3′-pyrano[3,2-c][1]benzopyran]-1-yl]-2-(2-methyl-1H-imidazol-1-yl)ethan-1-one]
hERG [2]
  IC50: < 0.3 µM
HT-29 cells; Homo sapiens, 96 h
  IC50: 80 nM

## Cc1nccn1CCN1CCC2(CC1)COC1c3cc(Cl)ccc3OC(C)(C)C1C2 (centres unmarked) [Example 48]
hERG [2]
  hERG/HT-29: >80
  deviation between the concentration of inhibiting 50% cell proliferation and the concentration of inhibiting 50% hERG current: good deviation
hERG [2]; [3]
  IC50: 0.8 µM
HT-29 cells
  IC50: < 10 nM
  activity for inhibiting cell proliferation in the sphere culture condition: potent activity

## Cc1nc[nH]c1CN1CCC2(CC1)COC1c3cc(F)ccc3OC(C)(C)C1C2 (centres unmarked) [Example 21]
hERG [2]
  hERG/HT-29: 7.14
hERG [2]; [3]
  IC50: 1.5 µM
HT-29 cells
  IC50: 210 nM

## Cc1nccn1CC(=O)N1CCC2(CC1)COC1c3cccc(Br)c3OC(C)(C)C1C2 (centres unmarked) [Example 9]
hERG [2]; [3]
  IC50: < 0.3 µM
HT-29 cells
  IC50: 770 nM

## Cc1nccn1CC(=O)N1CCC2(CC1)COC1c3cc(Cl)ccc3OC(C)(C)C1C2 (single isomer, unassigned) [Example 4]
hERG [2]; [3]
  IC50: < 0.3 µM
HT-29 cells
  IC50: 310 nM

## Cc1nccn1CCN1CCC2(CC1)COC1c3ccc(Cl)cc3OC(C)(C)C1C2 (centres unmarked) [Example 49]
hERG [2]
  hERG/HT-29: >140
  deviation between the concentration of inhibiting 50% cell proliferation and the concentration of inhibiting 50% hERG current: good deviation
hERG [2]; [3]
  IC50: 1.4 µM
HT-29 cells
  IC50: < 10 nM
  activity for inhibiting cell proliferation in the sphere culture condition: potent activity

## Cc1nccn1CC(=O)N1CCC2(CC1)COC1c3cc(N=[N+]=[N-])ccc3OC(C)(C)C1C2 (centres unmarked) [Example 10]
hERG [2]; [3]
  IC50: < 0.3 µM
HT-29 cells
  IC50: 240 nM

## Cc1nc[nH]c1CN1CCC2(CC1)COC1c3cccc(Cl)c3OC(C)(C)C1C2 (centres unmarked) [Example 27]
hERG [2]
  hERG/HT-29: 1.14
hERG [2]; [3]
  IC50: 0.4 µM
HT-29 cells
  IC50: 350 nM

## Cc1nccn1CC(=O)N1CCC2(CC1)COC1c3cc(F)ccc3OC(C)(C)C1C2 (centres unmarked) [Example 2]
hERG [2]; [3]
  IC50: < 0.3 µM
HT-29 cells
  IC50: 240 nM

## Cn1cncc1CN1CCC2(CC1)COC1c3cc(F)ccc3OC(C)(C)C1C2 (centres unmarked) [Example 31]
hERG [2]
  hERG/HT-29: 23.3
hERG [2]; [3]
  IC50: 1.4 µM
HT-29 cells
  IC50: 60 nM

## CC1(C)Oc2ccc(Cl)cc2C2OCC3(CCN(Cc4c[nH]cn4)CC3)CC21 (centres unmarked) [Example 29]
hERG [2]
  hERG/HT-29: 3.21
hERG [2]; [3]
  IC50: 2.6 µM
HT-29 cells
  IC50: 810 nM

## Cc1nc[nH]c1CN1CCC2(CC1)COC1c3cc(F)ccc3OC(C)(C)C1C2 (centres unmarked) [Example 23]
hERG [2]
  hERG/HT-29: 23.3
hERG [2]; [3]
  IC50: 1.4 µM
HT-29 cells
  IC50: 60 nM

## CC1(C)Oc2ccc(F)cc2C2OCC3(CCN(CCn4ccnc4)CC3)CC21 (centres unmarked) [Example 39]
hERG [2]
  hERG/HT-29: >100
  deviation between the concentration of inhibiting 50% cell proliferation and the concentration of inhibiting 50% hERG current: good deviation
hERG [2]; [3]
  IC50: 1 µM
HT-29 cells
  IC50: < 10 nM
  activity for inhibiting cell proliferation in the sphere culture condition: potent activity

## Cc1nccn1CCN1CCC2(CC1)COC1c3cc(F)ccc3OC(C)(C)C1C2 (centres unmarked) [Example 44]
hERG [2]
  hERG/HT-29: >360
  deviation between the concentration of inhibiting 50% cell proliferation and the concentration of inhibiting 50% hERG current: good deviation
hERG [2]; [3]
  IC50: 3.6 µM
HT-29 cells
  IC50: < 10 nM
  activity for inhibiting cell proliferation in the sphere culture condition: potent activity

## Cc1nc[nH]c1CN1CCC2(CC1)COC1c3ccc(Cl)cc3OCC1C2 (single isomer, unassigned) [Example 64b]
hERG [2]; [3]
  IC50: < 0.3 µM
HT-29 cells
  IC50: 50 nM
